According to paper PMC11990191, “Pharmacochemical Studies of Synthesized Coumarin–Isoxazole–Pyridine Hybrids” (Molecules, 2025):

Molecular target: T1, soybean lipoxygenase (sLOX) (Glycine max, UniProt P08170)
T1 construct: gene LOX1.1
T1 sequence (P08170 1-839): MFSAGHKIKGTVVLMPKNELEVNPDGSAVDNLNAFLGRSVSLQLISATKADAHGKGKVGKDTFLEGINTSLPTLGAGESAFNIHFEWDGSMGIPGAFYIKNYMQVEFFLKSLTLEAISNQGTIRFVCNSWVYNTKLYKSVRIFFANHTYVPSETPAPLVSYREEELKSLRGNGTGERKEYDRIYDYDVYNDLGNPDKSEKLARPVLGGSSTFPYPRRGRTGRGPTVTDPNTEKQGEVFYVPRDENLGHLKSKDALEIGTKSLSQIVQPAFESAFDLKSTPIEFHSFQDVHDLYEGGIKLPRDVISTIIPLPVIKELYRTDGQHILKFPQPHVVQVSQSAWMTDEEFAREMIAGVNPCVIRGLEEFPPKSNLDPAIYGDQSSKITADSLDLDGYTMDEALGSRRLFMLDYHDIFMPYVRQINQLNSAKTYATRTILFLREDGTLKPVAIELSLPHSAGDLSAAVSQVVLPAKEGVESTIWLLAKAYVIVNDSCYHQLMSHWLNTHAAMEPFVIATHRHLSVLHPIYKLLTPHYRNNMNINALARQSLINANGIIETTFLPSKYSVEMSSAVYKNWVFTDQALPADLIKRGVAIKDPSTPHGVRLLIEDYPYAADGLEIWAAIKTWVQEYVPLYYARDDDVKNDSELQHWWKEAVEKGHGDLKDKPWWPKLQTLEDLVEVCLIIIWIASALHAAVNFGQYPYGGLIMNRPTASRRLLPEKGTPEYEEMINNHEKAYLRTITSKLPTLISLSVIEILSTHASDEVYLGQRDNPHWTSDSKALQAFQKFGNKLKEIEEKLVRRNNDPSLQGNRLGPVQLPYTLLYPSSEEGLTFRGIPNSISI
Assay: UV absorbance enzyme assay at […] nm, sodium linoleate substrate, pH […]
Format: biochemical
Details: read-out: LOX(%)/ IC50

Row | IC50 | SMILES
1 | 10 µM | O=c1ccc2ccc(OCc3cc(-c4cccnc4)no3)cc2o1 [7a, 7-((3-(Pyridin-3-yl)isoxazol-5-yl)methoxy)-2H-chromen-2-one]
2 | 5 µM | O=c1cc(OCc2cc(-c3ccncc3)no2)c2ccccc2o1 [13a, 4-((3-(Pyridin-4-yl)isoxazol-5-yl)methoxy)-2H-chromen-2-one]
